Reference: patent US20110152166A1, “METHOD OF MODULATION OF PROTEIN PHOSPHORYLATION-DEPENDENT CONFORMATIONAL TRANSITIONS WITH LOW MOLECULAR WEIGHT COMPOUNDS” (priority 2006, published 2011)
Substitutions are numbered along the chain they refer to. Ends that are not written are not given here.

Experiments:
Assay in all cases: PDK1 activity assay with T308tide
Assay type in all cases: biochemical
GST-PDK1 [Gln150Met] = biological target: T1, GST-PDK1 [Gln150Met] (Homo sapiens, UniProt O15530, Q150M)
T1 construct: different protein constructs, comprising the full length protein or the catalytic domain alone; made in house; host or cells: HEK293 cells (pEBG-2T-PDK1 mutant)
T1 sequence (O15530 1-556 Q150M): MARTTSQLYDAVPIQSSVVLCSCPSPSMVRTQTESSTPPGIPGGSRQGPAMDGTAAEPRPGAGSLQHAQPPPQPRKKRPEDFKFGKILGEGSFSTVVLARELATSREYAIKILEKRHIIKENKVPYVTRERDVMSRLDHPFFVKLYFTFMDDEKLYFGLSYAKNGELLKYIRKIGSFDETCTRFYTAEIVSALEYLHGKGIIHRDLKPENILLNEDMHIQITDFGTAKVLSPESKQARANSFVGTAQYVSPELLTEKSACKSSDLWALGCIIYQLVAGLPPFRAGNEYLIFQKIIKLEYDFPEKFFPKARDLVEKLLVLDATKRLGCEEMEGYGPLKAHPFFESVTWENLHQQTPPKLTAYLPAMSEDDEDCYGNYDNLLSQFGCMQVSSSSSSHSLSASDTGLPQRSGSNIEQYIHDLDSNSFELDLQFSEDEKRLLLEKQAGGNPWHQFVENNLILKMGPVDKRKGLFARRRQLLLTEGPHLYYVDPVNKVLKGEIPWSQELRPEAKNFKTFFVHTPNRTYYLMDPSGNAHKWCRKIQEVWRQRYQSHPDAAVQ

GST-PDK1 [Leu155Glu] = biological target: T2, GST-PDK1 [Leu155Glu] (Homo sapiens, UniProt O15530, L155E); conditions: for AC50: GST-PDK1 [Leu155Glu]
T2 construct: different protein constructs, comprising the full length protein or the catalytic domain alone; made in house; host or cells: HEK293 cells (pEBG-2T-PDK1 mutant)
T2 sequence (O15530 1-556 L155E): T1 sequence (O15530 1-556 Q150M) with M150Q, L155E

GST-PDK1 [Leu155Val] = biological target: T3, GST-PDK1 [Leu155Val] (Homo sapiens, UniProt O15530, L155V)
T3 construct: different protein constructs, comprising the full length protein or the catalytic domain alone; made in house; host or cells: HEK293 cells (pEBG-2T-PDK1 mutant)
T3 sequence (O15530 whole entry L155V, the tested form may be a part): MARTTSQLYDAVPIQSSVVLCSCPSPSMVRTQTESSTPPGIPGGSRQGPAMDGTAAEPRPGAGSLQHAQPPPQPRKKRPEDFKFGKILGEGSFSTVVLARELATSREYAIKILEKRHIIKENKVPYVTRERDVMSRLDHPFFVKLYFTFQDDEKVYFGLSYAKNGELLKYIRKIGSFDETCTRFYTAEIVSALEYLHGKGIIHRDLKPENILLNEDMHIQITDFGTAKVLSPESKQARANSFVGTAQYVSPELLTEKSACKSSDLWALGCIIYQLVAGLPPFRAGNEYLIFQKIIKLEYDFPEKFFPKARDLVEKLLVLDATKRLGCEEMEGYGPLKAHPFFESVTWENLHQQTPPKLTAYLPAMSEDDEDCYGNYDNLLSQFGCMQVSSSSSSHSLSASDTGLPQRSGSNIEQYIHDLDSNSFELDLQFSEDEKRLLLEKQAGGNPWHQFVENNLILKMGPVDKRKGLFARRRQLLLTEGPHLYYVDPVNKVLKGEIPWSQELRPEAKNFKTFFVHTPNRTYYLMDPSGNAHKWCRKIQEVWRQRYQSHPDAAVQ

GST-PDK1 [Val124Ala] = biological target: T4, GST-PDK1 [Val124Ala] (Homo sapiens, UniProt O15530, V124A)
T4 construct: different protein constructs, comprising the full length protein or the catalytic domain alone; made in house; host or cells: HEK293 cells (pEBG-2T-PDK1 mutant)
T4 sequence (O15530 1-556 V124A): T1 sequence (O15530 1-556 Q150M) with V124A, M150Q

AC50 (GST-PDK1 [Gln150Met]) [nM]	Max. activity (GST-PDK1 [Gln150Met]) [U/mg]	AC50 (GST-PDK1 [Leu155Glu])	AC50 (GST-PDK1 [Leu155Val])	AC50 (GST-PDK1 [Val124Ala]) [nM]	Max. activity (GST-PDK1 [Val124Ala]) [U/mg]	activation of PDK1 mutant (in words) (GST-PDK1 [Leu155Glu]; Leu155 replaced with Glu, constitutively active)	Molecule
860 ± 250	2.11 ± 0.15	No Effect	No Effect	210 ± 30	1.91 ± 0.06		REPRILSEEEQEMFRDFDYIADWC [PIFtide, reference compound]
177000 ± 64000	2.28 ± 0.26	No Effect	No Effect	> 200000	2.6 ± 0.5	could not be further activated	O=C(O)CSC(CC(=O)c1ccc(Cl)cc1)c1ccccc1 (stereo not shown) [Compound 1]
